US20260373434A1, “QUICK DISSOLVABLE MICRONEEDLE WITH ENHANCED MECHANICAL STRENGTH, ITS COMPOSITIONS AND METHOD FOR FABRICATION THEREOF” (TRANSFORM SCITECH PRIVATE LIMITED, priority 2023, published 2026)
Where a name gives a salt, the structure may show the parent alone.

Experiments:
[1] = in vitro drug release study (Franz diffusion cell, pH 7.4); type: physicochemical; details: pH 7.4, 37 °C
Procedure: • Equipment: Franz diffusion cell shown in FIG. 38. • Dissolution medium: Physiological buffer solution pH (7.4) • Temperature: 37±0.2 °C. • Rotational speed: 100 rpm • Mode of sample analysis for Salbutamol sulphate—HPLC-UV analysis using RP C18 250X 4.6 mm; 5-micron, 100 A column and 87 parts of ammonium acetate buffer (pH 3.0, 20 mM) with sodium hexane sulfonate in combination with 13 parts of acetonitrile as a mobile phase. • Mode of sample analysis for Lorazepam—UV analysis, absorbance 280 nm • Mode of sample analysis for Cetirizine dihydrochloride—UV analysis, absorbance 276 nm • Mode of sample analysis for Ondansetran—UV analysis, absorbance 249 nm
Drug release at early time points was used to check the quick release characteristics. Salbutamol sulphate, Lorazepam and Cetirizine dihydrochloride which are soluble drugs released more than 80% achieving the quick release characteristics. Ondansetran which is a poorly soluble drug released about 30% in 20 minutes. Probably owing to its slow rate of dissolution. All drugs were analysed using appropriate UV/HPLC method as described in EXAMPLE 3. (FIGS. 39, 40, 41, 42, 43, 44)

[2] = drug classification and dissolution in the fabrication solvent; type: physicochemical; details: fabrication stage
Procedure: Salbutamol sulphate (Dose per patch 2.5 mg) and Lorazepam (Dose per patch 4 mg) are BCS Class I drugs, Cetirizine dihydrochloride (Dose per patch 5 mg) is BCS class III and Ondansetron Hydrochloride (Dose per patch 16 mg) is BCS Class II. The various drugs were studied for suitability of incorporation into the Dissolving microneedle formulation.

## O=C(O)COCCN1CCN(C(c2ccccc2)c2ccc(Cl)cc2)CC1 (centres unmarked) [Cetirizine dihydrochloride]
[1]; batch MN01/02/83A, early time points, UV 276 nm
  Cetirizine dihydrochloride released: more than 80%

## O=C1Nc2ccc(Cl)cc2C(c2ccccc2Cl)=NC1O (centres unmarked) [Lorazepam]
[1]; batch MN01/02/82, early time points, UV 280 nm
  Lorazepam released: more than 80%

## CC(C)(C)NCC(O)c1ccc(O)c(CO)c1 (centres unmarked) [Salbutamol sulphate]
[1]; batches MN01/02/64, MN01/02/77/A, MN01/02/77/B, early time points, HPLC-UV
  Salbutamol sulphate released: more than 80%

## Cc1nccn1CC1CCc2c(c3ccccc3n2C)C1=O (centres unmarked) [Ondansetron Hydrochloride]
[1]; batch MN01/02/84, in 20 minutes, UV 249 nm
  Ondansetran released: about 30%
[2]
  dissolution of drug in the aqueous solvent during fabrication: remained dispersed
